Reference: US9079864B2, “Modulators of S1P receptors” (Allergan, Inc., priority 2010, dated 2015)

Molecular target: T1, human S1P1 receptor (Homo sapiens, UniProt P21453)
T1 construct: expressed in transfected cells; membranes used
Test: GTP γ35S binding assay for S1P1 activity
Format: biochemical
Parameters: % stimulation: reference not given here
Conditions: for % stimulation: S1P1 receptor, agonist-induced; for EC50: membranes of cells stably expressing S1P1 receptor, agonist mode, 0.08 to 5,000 nM
Description: Novel compounds were synthesized and tested for S1P1 activity using the GTP γ^35S binding assay. These compounds may be assessed for their ability to activate or block activation of the human S1P1 receptor in cells stably expressing the S1P1 receptor. GTP γ^35S binding was measured in the medium containing (mM) HEPES 25, pH 7.4, MgCl2 10, NaCl 100, dithiothreitol 0.5, digitonin 0.003%, 0.2 nM GTP γ^35S, and 5 μg membrane protein in a volume of 150 μl. Test compounds were included in the concentration range from 0.08 to 5,000 nM unless indicated otherwise. Membranes were incubated with 100 μM 5′-adenylylimmidodiphosphate for 30 min, and subsequently with 10 μM GDP for 10 min on ice. Drug solutions and membrane were mixed, and then reactions were initiated by adding GTP γ^35S and continued for 30 min at 25° C. Reaction mixtures were filtered over Whatman GF/B filters under vacuum, and washed three times with 3 mL of ice-cold buffer (HEPES 25, pH 7.4, MgCl2 10 and NaCl 100). Filters were dried and mixed with scintillant, and counted for ^35S activity using a β-counter. Agonist-induced GTP γ^35S binding was obtained by subtracting that in the absence of agonist. In case of antagonist assay, the reaction mixture contained 10 nM S1P in the presence of test antagonist at concentrations ranging from 0.08 to 5000 nM.

T1 sequence (P21453 whole entry): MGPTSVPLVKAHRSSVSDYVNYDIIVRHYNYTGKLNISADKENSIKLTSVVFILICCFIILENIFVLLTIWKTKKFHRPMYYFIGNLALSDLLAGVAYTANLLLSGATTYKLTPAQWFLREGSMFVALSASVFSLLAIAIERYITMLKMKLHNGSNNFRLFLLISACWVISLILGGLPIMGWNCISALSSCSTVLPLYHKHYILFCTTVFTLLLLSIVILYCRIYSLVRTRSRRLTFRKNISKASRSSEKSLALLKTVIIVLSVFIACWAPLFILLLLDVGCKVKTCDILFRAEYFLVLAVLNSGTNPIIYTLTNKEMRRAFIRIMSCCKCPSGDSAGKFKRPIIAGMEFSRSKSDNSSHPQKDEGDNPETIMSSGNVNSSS

SMILES | % stimulation [%] | EC50 [nM]
CC(C)Oc1ccc(C#Cc2ccc(Cn3ccnc3)cc2)cc1C#N [Compound 1, 5-{[4-(1H-imidazol-1-ylmethyl)phenyl]ethynyl}-2-isopropoxybenzonitrile] | 67 | 6.3
CC(C)Oc1ccc(C#Cc2ccc(CN3CCCC3)cc2)cc1C#N [Compound 2, 2-isopropoxy-5-{[4-(pyrrolidin-1-ylmethyl)phenyl]ethynyl}benzonitrile] | 110 | 365
CC(C)Oc1ccc(C#Cc2ccc(Cn3ccnc3)cc2)cc1Cl [Compound 3, 1-{4-[(3-chloro-4-isopropoxyphenyl)ethynyl]-benzyl}-1H-imidazole] | 81 | 14.7
Cc1cc(Cn2ccnc2)ccc1C#Cc1ccc(OC(C)C)c(C#N)c1 [Compound 4, 5-{[4-(1H-imidazol-1-ylmethyl)-2-methylphenyl]ethynyl}-2-isopropoxybenzonitrile] | 70 | 3.1
CC(C)Oc1ccc(C#Cc2ccc(Cn3ccnc3)cc2Cl)cc1C#N [Compound 5, 5-{[2-chloro-4-(1H-imidazol-1-ylmethyl)phenyl]ethynyl}-2-isopropoxybenzonitrile] | 108 | 7.52
